The values that follow come from patent US20100221769A1, “ELECTROPORATIVE FLOW CYTOMETRY” (priority 2007, published 2010).

Assay [1] relates to MCF-7 cells. In words: EFC cell swelling during flow-through electroporation. The assay is classed as cell-based, human. The procedure:
Cell culture. MCF-7 and MCF-10A cell lines were obtained from American Type Culture Collection (ATCC, Manassas, Va.) and cultured according to recommended protocols. Briefly, MCF-10A cell line was cultured in DMEM F-12 supplemented with Horse Serum (5.6%), EGF (20 ng/ml), Insulin (10 μg/ml), antibiotics (1%) and Hydrocortisone (0.5 μg/ml). The MCF-7 cell line was cultured in DMEM supplemented with FBS (10%), Penicillin/streptomycin (1%) and L-glutamine (2 mM). The TPA treated MCF-7 cell line was generated by treating MCF-7 cells with 100 nM 12-O-tetradecanoylphorbol-13-acetate (TPA) for 18 hr before experiments. In order to detach cells from culture flasks, cells were treated with 0.1% Trypsin/EDTA, washed and resuspended using the electroporation buffer (10 mM Na2HPO4, […], and 250 mM sucrose). For the treatment of MCF-7 cells with colchicine, MCF-7 cells were incubated in the culture medium consisting of 10 μM colchicine (Sigma, St Louis, USA) for 30 min (Rots and Teissie, 1992, Biochim. Biophys. Acta 1111: 45-50). The cell suspension was then centrifuged and the supernatant was discarded. The cells were washed with the electroporation buffer and then resuspended in the electroporation buffer for testing. […]
Microchip operation and data collection/analysis. The microfluidic chip (shown in FIG. 10) was mounted on an IX-71 fluorescence microscope (Olympus, Melville, N.Y.) equipped with a 40× dry objective (NA=0.40) and an ORCA-285 CCD camera (Hamamatsu, Bridgewater, N.J.). […] However, because the cell size is monitored over time, the results should not be affected by the velocity, assuming mechanical effects such as shear stress can be ignored. […] In this case, the duration of electroporation was determined by the flow rate and the dimensions of the microfluidic channel. […]
For EFC tests, the images of cells were taken at a frame rate of 16 Hz. The cell size was monitored over time during electroporation by measuring the two-dimensional area (μm^2) of individual cells in time-sequenced images using ImageJ software from NIH. […]

Assay [2] has as its system MCF-7 cells. The experiment in a line: Cell viability (PI staining) after flow-through electroporation. It is filed as cell-based, human. To be noted: 0 and 200 V/cm, 200 ms, 1 hr after electroporation.
Assay [3] deals with MCF-7 cells. Conditions: 100 nM for 18 hr (Johnson et al., 1999); cited from earlier work.

Turning to `CCCCCCCCCCCCCC(=O)O[C@@H]1[C@@H](C)[C@@]2(O)[C@@H](C=C(CO)C[C@]3(O)C(=O)C(C)=C[C@@H]23)[C@@H]2C(C)(C)[C@]12OC(C)=O` [TPA, 12-O-tetradecanoylphorbol-13-acetate], the “average cell size, % of original size” value in the assay on MCF-7 cells [1] (400 V/cm, 192 ms, 100 nM for 18 hr, untreated MCF-7 148%) came to 170%. Besides, the “average percentile cell size from normal distribution fit of histogram” value in the assay on MCF-7 cells [1] (400 V/cm, 192 ms, about 100 cells, untreated MCF-7 150%) is reported as 170%. Moreover, in the assay on MCF-7 cells [2], the “survival compared with MCF-10A and untreated MCF-7” value is on record as “better survival rate”. In addition, the “increase in invasiveness and metastatic potential” value in the assay on MCF-7 cells [3] is on record as 18 fold.
As for `COc1cc2c(c(OC)c1OC)-c1ccc(OC)c(=O)cc1[C@@H](NC(C)=O)CC2` [colchicine], the “effect on cell deformability (swelling during electroporation vs control)” value in the assay on MCF-7 cells [1] (10 μM for 30 min) is on record as “cell stiffening”.
